In publication PMC10838953:

Legend:
[1] = tested on: 786-O cells; conditions: 48 h
[2] = tested on: 786-O cells
[3] = tested on: RPTEC (renal proximal tubule epithelial cells); assay: cells; conditions: Homo sapiens, read-out: IC50 cell viability
[4] = target: AURKC (Homo sapiens, UniProt Q9UQB9); assay: biochemical; conditions: read-out: %Ctrl @ 2000nM
[5] = target: BRAF(V600E) (Homo sapiens, UniProt P15056, V600E); assay: biochemical; conditions: read-out: %Ctrl @ 2000nM
[6] = target: CLK4 (Homo sapiens, UniProt Q9HAZ1); assay: biochemical; conditions: read-out: %Ctrl @ 2000nM
[7] = target: DYRK1A (Homo sapiens, UniProt Q13627); assay: biochemical; conditions: read-out: %Ctrl @ 2000nM
[8] = target: EPHA2 (Homo sapiens, UniProt P29317); assay: biochemical; conditions: read-out: %Ctrl @ 2000nM
[9] = target: EPHA3 (Homo sapiens, UniProt P29320); assay: biochemical; conditions: read-out: %Ctrl @ 2000nM
[10] = target: EPHA7 (Homo sapiens, UniProt Q15375); assay: biochemical; conditions: read-out: %Ctrl @ 2000nM
[11] = target: ERN1 (Homo sapiens, UniProt O75460); assay: biochemical; conditions: read-out: %Ctrl @ 2000nM
[12] = target: FLT3(K663Q) (Homo sapiens, UniProt P36888, K663Q); assay: biochemical; conditions: read-out: %Ctrl @ 2000nM
[13] = target: IKK-alpha (Homo sapiens, UniProt O15111); assay: biochemical; conditions: read-out: %Ctrl @ 2000nM
[14] = target: IKK-epsilon (Homo sapiens, UniProt Q14164); assay: biochemical; conditions: read-out: %Ctrl @ 2000nM
[15] = target: LKB1 (Homo sapiens, UniProt Q15831); assay: biochemical; conditions: read-out: %Ctrl @ 2000nM
[16] = target: LOK (Homo sapiens, UniProt O94804); assay: biochemical; conditions: read-out: %Ctrl @ 2000nM
[17] = target: MAP3K4 (Homo sapiens, UniProt Q9Y6R4); assay: biochemical; conditions: read-out: %Ctrl @ 2000nM
[18] = target: MARK4 (Homo sapiens, UniProt Q96L34); assay: biochemical; conditions: read-out: %Ctrl @ 2000nM
[19] = target: MEK1 (Homo sapiens, UniProt Q02750); assay: biochemical; conditions: read-out: %Ctrl @ 2000nM
[20] = target: MET (Homo sapiens, UniProt P08581); assay: biochemical; conditions: read-out: %Ctrl @ 2000nM
[21] = target: MKNK1 (Homo sapiens, UniProt Q9BUB5); assay: biochemical; conditions: read-out: %Ctrl @ 2000nM
[22] = target: MTOR (Homo sapiens, UniProt P42345); assay: biochemical; conditions: read-out: %Ctrl @ 2000nM
[23] = target: p38-alpha (Homo sapiens, UniProt Q16539); assay: biochemical; conditions: read-out: %Ctrl @ 2000nM
[24] = target: PDGFRA (Homo sapiens, UniProt P16234); assay: biochemical; conditions: read-out: %Ctrl @ 2000nM
[25] = target: PIK3CA(E542K) (Homo sapiens, UniProt P42336, E542K); assay: biochemical; conditions: read-out: %Ctrl @ 2000nM
[26] = target: PIK3CA(E545K) (Homo sapiens, UniProt P42336, E545K); assay: biochemical; conditions: read-out: %Ctrl @ 2000nM
[27] = target: PIM2 (Homo sapiens, UniProt Q9P1W9); assay: biochemical; conditions: read-out: %Ctrl @ 2000nM
[28] = target: SGK2 (Homo sapiens, UniProt Q9HBY8); assay: biochemical; conditions: read-out: %Ctrl @ 2000nM
[29] = target: SLK (Homo sapiens, UniProt Q9H2G2); assay: biochemical; conditions: read-out: %Ctrl @ 2000nM
[30] = target: SRPK3 (Homo sapiens, UniProt Q9UPE1); assay: biochemical; conditions: read-out: %Ctrl @ 2000nM
[31] = target: STK35 (Homo sapiens, UniProt Q8TDR2); assay: biochemical; conditions: read-out: %Ctrl @ 2000nM
[32] = target: TGFBR1 (Homo sapiens, UniProt P36897); assay: biochemical; conditions: read-out: %Ctrl @ 2000nM
[33] = target: TIE1 (Homo sapiens, UniProt P35590); assay: biochemical; conditions: read-out: %Ctrl @ 2000nM
[34] = target: TNIK (Homo sapiens, UniProt Q9UKE5); assay: biochemical; conditions: read-out: %Ctrl @ 2000nM
[35] = target: WNK4 (Homo sapiens, UniProt Q96J92); assay: biochemical; conditions: read-out: %Ctrl @ 2000nM
[36] = target: YANK3 (Homo sapiens, UniProt Q86UX6); assay: biochemical; conditions: read-out: %Ctrl @ 2000nM
[37] = target: YSK1 (Homo sapiens, UniProt O00506); assay: biochemical; conditions: read-out: %Ctrl @ 2000nM
[38] = target: YSK4 (Homo sapiens, UniProt Q56UN5); assay: biochemical; conditions: read-out: %Ctrl @ 2000nM

Sequence of SLK (Q9H2G2 whole entry): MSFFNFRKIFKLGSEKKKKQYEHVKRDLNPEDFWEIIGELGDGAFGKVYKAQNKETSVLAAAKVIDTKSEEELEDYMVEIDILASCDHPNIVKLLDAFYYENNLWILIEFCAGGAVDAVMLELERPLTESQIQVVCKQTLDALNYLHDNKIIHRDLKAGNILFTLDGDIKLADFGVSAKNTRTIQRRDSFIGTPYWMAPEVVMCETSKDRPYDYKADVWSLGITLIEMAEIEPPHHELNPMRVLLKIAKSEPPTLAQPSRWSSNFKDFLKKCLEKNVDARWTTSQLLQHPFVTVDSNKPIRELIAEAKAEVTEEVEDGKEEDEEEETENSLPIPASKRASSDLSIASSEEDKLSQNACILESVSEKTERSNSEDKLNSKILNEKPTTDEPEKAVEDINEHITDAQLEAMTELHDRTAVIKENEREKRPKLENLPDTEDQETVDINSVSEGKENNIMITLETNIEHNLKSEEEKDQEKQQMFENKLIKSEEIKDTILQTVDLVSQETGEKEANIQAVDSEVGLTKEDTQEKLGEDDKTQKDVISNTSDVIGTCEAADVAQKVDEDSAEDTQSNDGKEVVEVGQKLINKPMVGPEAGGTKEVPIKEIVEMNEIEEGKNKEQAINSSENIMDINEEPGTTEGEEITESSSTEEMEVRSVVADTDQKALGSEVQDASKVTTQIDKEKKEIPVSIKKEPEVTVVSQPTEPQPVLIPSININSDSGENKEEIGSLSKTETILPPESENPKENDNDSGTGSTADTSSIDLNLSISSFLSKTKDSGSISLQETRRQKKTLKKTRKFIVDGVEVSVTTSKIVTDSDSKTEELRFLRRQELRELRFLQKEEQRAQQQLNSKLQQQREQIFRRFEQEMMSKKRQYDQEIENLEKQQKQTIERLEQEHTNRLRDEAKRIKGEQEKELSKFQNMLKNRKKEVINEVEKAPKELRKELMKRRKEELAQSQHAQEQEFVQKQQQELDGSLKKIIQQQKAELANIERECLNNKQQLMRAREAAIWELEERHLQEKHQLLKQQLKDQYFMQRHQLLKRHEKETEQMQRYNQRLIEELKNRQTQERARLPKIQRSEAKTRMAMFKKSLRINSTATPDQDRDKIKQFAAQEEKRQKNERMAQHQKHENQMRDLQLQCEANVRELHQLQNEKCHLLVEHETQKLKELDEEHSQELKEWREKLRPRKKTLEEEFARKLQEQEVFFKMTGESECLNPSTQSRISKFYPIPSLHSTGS
Sequence of SGK2 (Q9HBY8 whole entry): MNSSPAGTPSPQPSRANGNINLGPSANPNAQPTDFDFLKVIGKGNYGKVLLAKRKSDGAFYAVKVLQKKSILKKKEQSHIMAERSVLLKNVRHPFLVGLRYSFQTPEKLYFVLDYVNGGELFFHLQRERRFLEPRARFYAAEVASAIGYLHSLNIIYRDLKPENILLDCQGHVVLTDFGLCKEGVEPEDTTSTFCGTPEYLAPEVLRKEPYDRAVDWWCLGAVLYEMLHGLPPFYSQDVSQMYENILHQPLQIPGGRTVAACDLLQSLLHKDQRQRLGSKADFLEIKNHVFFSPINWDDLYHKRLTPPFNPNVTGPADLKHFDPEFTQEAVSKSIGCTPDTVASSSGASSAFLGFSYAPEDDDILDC
Sequence of SRPK3 (Q9UPE1 whole entry): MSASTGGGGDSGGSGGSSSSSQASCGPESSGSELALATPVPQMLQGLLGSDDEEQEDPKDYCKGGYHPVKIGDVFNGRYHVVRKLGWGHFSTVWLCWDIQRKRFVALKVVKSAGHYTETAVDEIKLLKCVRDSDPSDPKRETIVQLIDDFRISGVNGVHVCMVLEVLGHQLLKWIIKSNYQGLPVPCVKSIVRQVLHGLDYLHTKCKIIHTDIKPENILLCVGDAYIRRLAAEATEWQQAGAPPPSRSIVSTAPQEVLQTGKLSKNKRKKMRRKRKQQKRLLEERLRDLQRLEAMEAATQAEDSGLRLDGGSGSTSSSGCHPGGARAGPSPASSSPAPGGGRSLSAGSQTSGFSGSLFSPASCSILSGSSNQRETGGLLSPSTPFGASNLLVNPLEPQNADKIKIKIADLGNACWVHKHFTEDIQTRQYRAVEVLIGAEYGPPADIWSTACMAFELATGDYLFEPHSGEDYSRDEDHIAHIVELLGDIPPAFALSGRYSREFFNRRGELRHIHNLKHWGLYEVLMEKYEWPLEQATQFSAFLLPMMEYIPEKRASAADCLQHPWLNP
Sequence of MARK4 (Q96L34 whole entry): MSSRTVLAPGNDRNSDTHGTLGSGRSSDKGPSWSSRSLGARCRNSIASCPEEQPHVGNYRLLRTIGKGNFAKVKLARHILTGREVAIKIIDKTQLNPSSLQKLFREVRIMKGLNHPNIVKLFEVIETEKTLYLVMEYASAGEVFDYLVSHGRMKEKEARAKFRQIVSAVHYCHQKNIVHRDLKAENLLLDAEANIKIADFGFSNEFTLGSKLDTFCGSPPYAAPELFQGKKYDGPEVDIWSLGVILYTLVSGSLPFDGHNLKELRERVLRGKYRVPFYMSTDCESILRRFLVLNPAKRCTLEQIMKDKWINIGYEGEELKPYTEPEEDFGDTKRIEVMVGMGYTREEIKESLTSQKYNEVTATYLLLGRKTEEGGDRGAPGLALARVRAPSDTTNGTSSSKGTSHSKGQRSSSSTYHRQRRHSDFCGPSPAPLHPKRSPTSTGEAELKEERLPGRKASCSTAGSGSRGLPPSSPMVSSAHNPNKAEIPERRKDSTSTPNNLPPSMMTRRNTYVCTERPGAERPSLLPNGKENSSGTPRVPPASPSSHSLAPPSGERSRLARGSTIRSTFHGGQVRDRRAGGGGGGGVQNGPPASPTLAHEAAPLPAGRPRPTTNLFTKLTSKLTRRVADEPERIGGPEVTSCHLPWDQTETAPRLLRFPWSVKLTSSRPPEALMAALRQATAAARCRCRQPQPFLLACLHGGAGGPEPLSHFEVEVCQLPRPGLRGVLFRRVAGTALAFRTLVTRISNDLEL
Sequence of EPHA2 (P29317 24-976): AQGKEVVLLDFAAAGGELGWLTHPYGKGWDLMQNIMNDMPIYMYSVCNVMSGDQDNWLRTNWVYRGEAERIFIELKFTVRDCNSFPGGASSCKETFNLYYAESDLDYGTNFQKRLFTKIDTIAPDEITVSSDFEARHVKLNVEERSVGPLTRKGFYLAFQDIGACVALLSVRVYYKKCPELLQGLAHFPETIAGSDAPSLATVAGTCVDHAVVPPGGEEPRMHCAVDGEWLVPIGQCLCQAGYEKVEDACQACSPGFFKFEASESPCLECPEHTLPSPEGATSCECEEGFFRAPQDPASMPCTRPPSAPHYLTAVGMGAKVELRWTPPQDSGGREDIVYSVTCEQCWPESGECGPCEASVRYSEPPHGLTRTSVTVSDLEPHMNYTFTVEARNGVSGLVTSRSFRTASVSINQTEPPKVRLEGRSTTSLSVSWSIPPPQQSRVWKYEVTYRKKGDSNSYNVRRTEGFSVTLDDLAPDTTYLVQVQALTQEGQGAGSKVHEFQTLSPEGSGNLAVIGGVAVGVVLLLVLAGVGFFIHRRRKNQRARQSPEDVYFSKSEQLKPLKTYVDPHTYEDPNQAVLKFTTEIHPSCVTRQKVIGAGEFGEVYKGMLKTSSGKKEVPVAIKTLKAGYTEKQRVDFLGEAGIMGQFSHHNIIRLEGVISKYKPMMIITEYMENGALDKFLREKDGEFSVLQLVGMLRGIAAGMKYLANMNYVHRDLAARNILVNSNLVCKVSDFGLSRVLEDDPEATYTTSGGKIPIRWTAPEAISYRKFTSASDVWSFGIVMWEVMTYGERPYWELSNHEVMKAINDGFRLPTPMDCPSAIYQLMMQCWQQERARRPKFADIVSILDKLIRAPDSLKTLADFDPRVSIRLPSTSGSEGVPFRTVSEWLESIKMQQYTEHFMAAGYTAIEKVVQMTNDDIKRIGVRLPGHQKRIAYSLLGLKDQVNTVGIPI
Sequence of PIK3CA(E545K) (P42336 whole entry E545K): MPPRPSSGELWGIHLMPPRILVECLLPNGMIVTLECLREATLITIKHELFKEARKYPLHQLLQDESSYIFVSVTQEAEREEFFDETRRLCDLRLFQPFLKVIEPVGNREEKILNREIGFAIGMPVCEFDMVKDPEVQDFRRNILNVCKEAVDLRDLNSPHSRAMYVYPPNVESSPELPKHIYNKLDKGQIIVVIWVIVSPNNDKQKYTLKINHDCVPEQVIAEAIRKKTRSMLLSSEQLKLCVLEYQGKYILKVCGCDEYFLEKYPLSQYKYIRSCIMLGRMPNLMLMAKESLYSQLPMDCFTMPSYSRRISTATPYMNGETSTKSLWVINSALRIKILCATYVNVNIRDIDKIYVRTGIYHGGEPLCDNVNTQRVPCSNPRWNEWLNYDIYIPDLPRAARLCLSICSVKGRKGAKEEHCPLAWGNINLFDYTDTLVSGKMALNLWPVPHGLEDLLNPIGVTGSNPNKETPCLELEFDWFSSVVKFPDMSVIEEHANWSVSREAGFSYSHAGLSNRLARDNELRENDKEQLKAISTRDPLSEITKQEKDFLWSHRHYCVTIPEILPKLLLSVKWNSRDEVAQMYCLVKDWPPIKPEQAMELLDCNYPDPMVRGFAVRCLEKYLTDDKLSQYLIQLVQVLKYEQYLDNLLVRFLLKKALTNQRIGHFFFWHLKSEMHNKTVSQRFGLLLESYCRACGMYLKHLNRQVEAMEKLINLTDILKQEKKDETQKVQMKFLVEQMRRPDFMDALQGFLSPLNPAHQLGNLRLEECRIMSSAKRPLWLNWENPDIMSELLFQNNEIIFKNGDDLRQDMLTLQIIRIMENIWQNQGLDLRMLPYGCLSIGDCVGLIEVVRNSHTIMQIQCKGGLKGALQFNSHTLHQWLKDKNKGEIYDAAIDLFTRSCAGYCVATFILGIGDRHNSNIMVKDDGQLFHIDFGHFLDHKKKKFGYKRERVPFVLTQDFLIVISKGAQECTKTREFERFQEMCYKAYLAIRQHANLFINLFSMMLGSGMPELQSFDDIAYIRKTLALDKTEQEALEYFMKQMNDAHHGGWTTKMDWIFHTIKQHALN
Sequence of PIK3CA(E542K) (P42336 whole entry E542K): as the sequence (P42336 whole entry E545K) above, with E542K, K545E counted along it

SMILES: CC(C)COC(=O)c1[nH]c2ccc(F)cc2c1-c1cn(CC2CCN(CCNS(=O)(=O)c3ccc(CC(C)C)cc3)CC2)nn1 [AB668, isobutyl 5-fluoro-3-(1-((1-(2-((4-isobutylphenyl)sulfonamido)ethyl)piperidin-4-yl)methyl)-1H-1,2,3-triazol-4-yl)-1H-indole-2-carboxylate]
- proliferation, cell death and apoptosis ([1]; 4 μM): induced significant cell proliferation arrest associated with cell death and apoptosis
- renal cancer cell death, dose dependent ([1]; low concentration (<5μM)): more efficient than CX-4945 and SGC-CK2-1
- NES: Asymmetric localization of PCP proteins [2]: -1.441
- NES: G1/S Transition [2]: -1.326
- NES: G2/M Checkpoints [2]: -1.7
- NES: G2/M Transition [2]: -1.306
- NES: Infection with Mycobacterium tuberculosis [2]: 1.8732
- NES: Innate Immune System [2]: 1.345
- NES: Keratan sulfate/keratin metabolism [2]: 1.522
- NES: Mitotic G1 phase and G1/S transition [2]: -1.351
- NES: Mitotic G2-G2/M phases [2]: -1.306
- NES: Response of Mtb to phagocytosis [2]: 1.92
- NES: TBC/RABGAPs [2]: 1.83
- NES: p53-Independent G1/S DNA damage checkpoint [2]: -1.606
- enrichmentScore: Asymmetric localization of PCP proteins [2]: -0.3931
- enrichmentScore: G1/S Transition [2]: -0.3116
- enrichmentScore: G2/M Checkpoints [2]: -0.3959
- enrichmentScore: G2/M Transition [2]: -0.2924
- enrichmentScore: Infection with Mycobacterium tuberculosis [2]: 0.7066
- enrichmentScore: Innate Immune System [2]: 0.2817
- enrichmentScore: Mitotic G2-G2/M phases [2]: -0.2924
- enrichmentScore: Response of Mtb to phagocytosis [2]: 0.737
- enrichmentScore: TBC/RABGAPs [2]: 0.6519
- IC50 [3]: > 100 µM
- remaining activity at 2 µM [4]: 100%
- remaining activity at 2 µM [5]: 100%
- remaining activity at 2 µM [6]: 97%
- remaining activity at 2 µM [7]: 99%
- remaining activity at 2 µM [8]: 92%
- remaining activity at 2 µM [9]: 86%
- remaining activity at 2 µM [10]: 93%
- remaining activity at 2 µM [11]: 100%
- remaining activity at 2 µM [12]: 96%
- remaining activity at 2 µM [13]: 100%
- remaining activity at 2 µM [14]: 76%
- remaining activity at 2 µM [15]: 89%
- remaining activity at 2 µM [16]: 100%
- remaining activity at 2 µM [17]: 90%
- remaining activity at 2 µM [18]: 87%
- remaining activity at 2 µM [19]: 97%
- remaining activity at 2 µM [20]: 100%
- remaining activity at 2 µM [21]: 63%
- remaining activity at 2 µM [22]: 92%
- remaining activity at 2 µM [23]: 87%
- remaining activity at 2 µM [24]: 86%
- remaining activity at 2 µM [25]: 99%
- remaining activity at 2 µM [26]: 88%
- remaining activity at 2 µM [27]: 84%
- remaining activity at 2 µM [28]: 98%
- remaining activity at 2 µM [29]: 100%
- remaining activity at 2 µM [30]: 100%
- remaining activity at 2 µM [31]: 89%
- remaining activity at 2 µM [32]: 84%
- remaining activity at 2 µM [33]: 89%
- remaining activity at 2 µM [34]: 88%
- remaining activity at 2 µM [35]: 96%
- remaining activity at 2 µM [36]: 92%
- remaining activity at 2 µM [37]: 82%
- remaining activity at 2 µM [38]: 100%
